Experimental data taken from EP1743643A1, “New formulations of substituted pyrazoline compounds” (LABORATORIOS DEL DR. ESTEVE, S.A., priority 2005, dated 2007).

How the values were obtained:
male mice B6 Lep ob/ob = experiment: In-vivo testing for regulation of triglycerides in blood, obese mice on high fat diet; settings: for triglicerides blood levels (result in words): obese mice fed with high fat diet
Description: The study was done using six weeks old male mice B6 Lep ob/ob, obtained from Charles River (France). Mice were divided in 3 groups : I (control), II (vehicle), III (example 0).
The animals of the group I received the standard diet (D-12450B, Research Diets, NJ, USA).
The animals of the groups II and III were fed with a High Fat Diet (D-12492, Research Diets, NJ, USA), in both cases for 7 weeks (References 1 and 2).
The animals of the groups III were fed with a High Fat Diet (D-12492, Research Diets, NJ, USA), in both cases for 7 weeks (References 1 and 2).
At the end of the feeding period of 7 weeks, it was started the treatment period (14 days): Group II mice received the vehicle (10 ml/kg/day, po, of the aqueous solution of acacia gum, 5% WN). Group III was administered with 30 mg/kg/day, po, of the inventive compound 5-(4-chlorophenyl)-1-(2,4-dichlorophenyl)-4,5-dihydro-pyrazole-3-carboxylic acid according to Example 0. Group I didn't received any treatment. The three groups of mice had the same diet than in the previous period.
At the end of the 14 days period of treatment, the blood levels of triglicerides of the animals were determined.
The analysis of the whole blood samples was done using test strips "Lipid panel" and the photometric Analyzer Cardio-Check Test System, from PA Instruments Polymer Technology Systems Indianapolis, IN-46268, USA (Distributed in Spain by Novalab Iberica S.A.L, Madrid, Spain).

CB1-Receptor = target: T1, CB1-Receptor (Homo sapiens, UniProt P21554); experiment: In-vitro determination of affinity to CB1 receptor (radioligand [3H]-CP55940); type: binding
T1 construct: purchased Receptor Biology, Inc
Protocol: (§1) The in-vitro determination of the affinity of the inventive substituted pyrazoline compounds to CB1/CB2-Rezeptors is carried out as described in the publication of Ruth A. Ross, Heather C. Brockie et al., "Agonist-inverse agonist characterization at CB1 and CB2 cannabinoid receptors of L-759633, L759656 and AM630", British Journal of Pharmacology, 126, 665-672, (1999), whereby the transfected human CB1 and CB2 receptors of Receptor Biology, Inc. are used. The radioligand used for both receptors is [^3H]-CP55940. The respective parts of the description is hereby incorporated by reference and forms part of the present disclosure.
(§2) The affinity of the inventive substituted pyrazoline compounds to CB1/CB2 receptors was determined as described above.

CB2-Receptor = target: T2, CB2-Receptor (Homo sapiens, UniProt P34972); experiment: In-vitro determination of affinity to CB2 receptor (radioligand [3H]-CP55940); type: binding
T2 construct: purchased Receptor Biology, Inc
Protocol: as §1, §2

T2 sequence (P34972 whole entry): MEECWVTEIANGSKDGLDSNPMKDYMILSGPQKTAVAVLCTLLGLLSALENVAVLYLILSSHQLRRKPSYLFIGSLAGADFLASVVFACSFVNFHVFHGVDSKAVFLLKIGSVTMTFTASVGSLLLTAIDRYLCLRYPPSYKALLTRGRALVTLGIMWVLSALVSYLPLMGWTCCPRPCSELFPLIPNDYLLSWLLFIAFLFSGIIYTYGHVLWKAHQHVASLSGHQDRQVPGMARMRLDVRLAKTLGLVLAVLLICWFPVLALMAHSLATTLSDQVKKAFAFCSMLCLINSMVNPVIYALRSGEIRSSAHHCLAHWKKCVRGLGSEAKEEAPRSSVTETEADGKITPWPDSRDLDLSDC
T1 sequence (P21554 whole entry): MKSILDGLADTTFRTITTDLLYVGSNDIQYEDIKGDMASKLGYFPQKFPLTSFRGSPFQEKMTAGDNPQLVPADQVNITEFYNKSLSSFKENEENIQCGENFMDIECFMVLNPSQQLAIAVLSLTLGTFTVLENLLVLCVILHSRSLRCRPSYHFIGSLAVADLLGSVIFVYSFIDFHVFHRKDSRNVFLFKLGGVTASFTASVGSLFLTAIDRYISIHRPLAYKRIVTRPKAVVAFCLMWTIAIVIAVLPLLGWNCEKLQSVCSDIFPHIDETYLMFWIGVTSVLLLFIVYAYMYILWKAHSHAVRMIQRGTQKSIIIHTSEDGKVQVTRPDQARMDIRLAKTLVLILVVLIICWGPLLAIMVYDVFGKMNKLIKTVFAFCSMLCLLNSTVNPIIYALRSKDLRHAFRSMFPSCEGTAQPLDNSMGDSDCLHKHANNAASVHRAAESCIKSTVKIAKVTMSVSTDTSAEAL

SMILES | Triglicerides, whole blood levels (mg/dl) (male mice B6 Lep ob/ob; High Fat diet, 30 mg/kg/day po, 14 days of treatment, B6 Lep ob/ob mice) | triglicerides blood levels (result in words) (male mice B6 Lep ob/ob) | triglicerides blood levels (result in words) (male mice B6 Lep ob/ob; listed as Example 8) | Relative levels (male mice B6 Lep ob/ob; triglicerides relative to Group I (standard diet, 100%), High Fat diet, 30 mg/kg/day po, 14 days) | Ki (CB1-Receptor) | Ki (CB2-Receptor)
O=C(O)C1=NN(c2ccc(Cl)cc2Cl)C(c2ccc(Cl)cc2)C1 (stereo not shown) [Example 0, 5-(4-chlorophenyl)-1-(2,4-dichlorophenyl)-4,5-dihydro-pyrazole-3-carboxylic acid] | 67.5 (N.S.) mg/dl | inhibitor of high blood levels of triglicerides | improved the triglicerides blood levels | 110.6% | – | –
O=C(NN1CCCCC1)C1=NN(c2ccc(Cl)cc2Cl)C(c2ccc(Cl)cc2)C1 (stereo not shown) [Example 1, N-piperidinyl-5-(4-chlorophenyl)-1-(2,4-dichlorophenyl)-4,5-dihydro-1H-pyrazole-3-carboxamide] | – | – | – | – | < 0.025 µM | > 1 µM
O=C(C1=NN(c2ccc(Cl)cc2Cl)C(c2ccc(Cl)cc2)C1)N1CCCCC1 (stereo not shown) [Example 5, [5-(4-Chloro-phenyl)-1-(2,4-dichloro-phenyl)-4,5-dihydro-1H-pyrazol-3-yl]-piperidin-1-yl-methanone] | – | – | – | – | – | ~1 µM
